Laboratory results: PubChem BioAssay (NCI)
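Growth conditions: 96-well plates. Treatment: test compound, 48 hours, 5 concentrations. Analysis: linear interpolation between bracketing concentrations; unreached endpoints set to highest concentration. At the GI50, growth is halved. TGI denotes the concentration required for complete inhibition of growth.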

Experiments:
Test in all cases: DTP human tumour cell line panel, 48 h
[1] = tested on: HCT-116 colon
[2] = tested on: UO-31 renal
[3] = tested on: SNB-75 CNS
[4] = tested on: PC-3 prostate
[5] = tested on: UACC-62 melanoma
[6] = tested on: SK-MEL-2 melanoma
[7] = tested on: DU-145 prostate
[8] = tested on: SK-OV-3 ovarian
[9] = tested on: LOX IMVI melanoma
[10] = tested on: K-562 leukemia
[11] = tested on: RXF 393 renal
[12] = tested on: SNB-78 CNS

With `CO[C@](C(=O)OC[C@H]1[C@@H](COC(C)=O)[C@@H]2O[C@H]1c1cc3c(cc12)OCO3)(c1ccccc1)C(F)(F)F` the TGI [1] was > 100 µM, the TGI [2] was 55.4 µM and the TGI [3] was 71.5 µM. For the same compound, the TGI [4] was > 100 µM, the TGI [5] was > 100 µM and the TGI [6] was 91.3 µM. The TGI [7] was > 100 µM and the TGI [8] was > 100 µM.
`COc1cc(/C=C2\CN(S(=O)(=O)c3ccc(C)cc3)C/C(=C\c3cc(CN4CCCC4)c(O)c(OC)c3)C2=O)cc(CN2CCCC2)c1O` showed a GI50 [1] of 0.848 µM, a TGI [1] of 2.21 µM and a GI50 [2] of 1.51 µM. For the same compound, the TGI [2] was 2.96 µM, the GI50 [3] was 1.1 µM and the TGI [3] was 2.56 µM. For the same compound, the GI50 [4] was 1.56 µM, the TGI [4] was 3.67 µM and the GI50 [6] was 1.87 µM. The TGI [6] was 4.05 µM, the GI50 [7] was 0.926 µM and the TGI [7] was 2.15 µM. It also gave a GI50 [9] of 0.649 µM and a TGI [9] of 2.02 µM.
With `Oc1ccc(NCn2c(=S)sc3ccccc32)cc1` the TGI [1] was > 100 µM, the TGI [10] was > 100 µM and the TGI [2] was > 100 µM. The TGI [11] was > 100 µM, the TGI [3] was > 100 µM and the TGI [4] was > 100 µM. For the same compound, the TGI [5] was > 100 µM, the TGI [6] was > 100 µM and the TGI [7] was > 100 µM. The TGI [9] was > 100 µM and the TGI [8] was > 100 µM.
With `CON(C)C(=O)C(Cc1ccccc1)NC(=O)OCc1ccccc1` (configuration not stated) the TGI [1] was > 100 µM, the TGI [10] was > 100 µM and the TGI [2] was > 100 µM. For the same compound, the TGI [11] was > 100 µM, the TGI [3] was > 100 µM and the TGI [12] was > 100 µM. For the same compound, the TGI [5] was > 100 µM, the TGI [6] was > 100 µM and the TGI [8] was > 100 µM.
For `CCOC(=O)c1csc(NC(=O)CN2CCCC2)n1`, the TGI [10] was > 100 µM, the TGI [2] was > 100 µM and the TGI [11] was > 100 µM. For the same compound, the TGI [3] was > 100 µM, the TGI [4] was > 100 µM and the TGI [5] was > 100 µM. For the same compound, the TGI [6] was > 100 µM, the TGI [7] was > 100 µM and the TGI [9] was > 100 µM. For the same compound, the TGI [8] was > 100 µM.
With `O=C(CC1Sc2ccccc2NC1=O)Nc1ccccc1[N+](=O)[O-]` (configuration not stated) the TGI [1] was > 100 µM, the TGI [10] was > 100 µM and the TGI [2] was > 100 µM. For the same compound, the TGI [11] was > 100 µM, the TGI [3] was > 100 µM and the TGI [12] was > 100 µM. The TGI [5] was > 100 µM, the TGI [6] was > 100 µM and the TGI [9] was > 100 µM. The TGI [8] was > 100 µM.
For `CC1NC(=O)C(C)C(c2ccccc2)N(N=O)C1c1ccccc1` (configuration not stated), the TGI [1] was > 100 µM, the TGI [10] was > 100 µM and the TGI [2] was > 100 µM. For the same compound, the TGI [11] was > 100 µM, the TGI [3] was > 79.3 µM and the TGI [12] was > 100 µM. The TGI [5] was > 100 µM, the TGI [6] was > 100 µM and the TGI [9] was > 100 µM. The TGI [8] was > 79.1 µM.
